Measurements reported in ChEMBL document CHEMBL4507301 (2021).

Assays:
[1] = test system: Tyrosine-protein kinase ABL1 (Homo sapiens), P00519 [E255K]; conditions: Compound concentration 1000.0 nM
[2] = target: RAC-alpha serine/threonine-protein kinase (Homo sapiens) (UniProt P31749); conditions: Compound concentration 1000.0 nM
[3] = target: Ankyrin repeat and protein kinase domain-containing protein 1 (Homo sapiens) (UniProt Q8NFD2); conditions: Compound concentration 1000.0 nM
[4] = target: Mitotic checkpoint serine/threonine-protein kinase BUB1 (Homo sapiens) (UniProt O43683); conditions: Compound concentration 1000.0 nM
[5] = target: Calcium/calmodulin-dependent protein kinase kinase 1 (Homo sapiens) (UniProt Q8N5S9); conditions: Compound concentration 1000.0 nM
[6] = target: Peripheral plasma membrane protein CASK (Homo sapiens) (UniProt O14936); conditions: Compound concentration 1000.0 nM
[7] = target: Serine/threonine-protein kinase Chk2 (Homo sapiens) (UniProt O96017); conditions: Compound concentration 1000.0 nM
[8] = target: Dual specificity protein kinase CLK1 (Homo sapiens) (UniProt P49759); conditions: Compound concentration 1000.0 nM
[9] = target: Death-associated protein kinase 1 (Homo sapiens) (UniProt P53355); conditions: Compound concentration 1000.0 nM
[10] = target: Dual specificity tyrosine-phosphorylation-regulated kinase 2 (Homo sapiens) (UniProt Q92630); conditions: Compound concentration 1000.0 nM
[11] = test system: Epidermal growth factor receptor (Homo sapiens), P00533 [UNDEFINED MUTATION]; conditions: Compound concentration 1000.0 nM
[12] = test system: Epidermal growth factor receptor (Homo sapiens), P00533 [G719C]; conditions: Compound concentration 1000.0 nM
[13] = test system: Epidermal growth factor receptor (Homo sapiens), P00533 [G719S]; conditions: Compound concentration 1000.0 nM
[14] = target: Ephrin type-B receptor 1 (Homo sapiens) (UniProt P54762); conditions: Compound concentration 1000.0 nM
[15] = target: Ephrin type-B receptor 3 (Homo sapiens) (UniProt P54753); conditions: Compound concentration 1000.0 nM
[16] = target: Receptor tyrosine-protein kinase erbB-4 (Homo sapiens) (UniProt Q15303); conditions: Compound concentration 1000.0 nM
[17] = target: Fibroblast growth factor receptor 3 (Homo sapiens) (UniProt P22607); conditions: Compound concentration 1000.0 nM
[18] = test system: Receptor-type tyrosine-protein kinase FLT3 (Homo sapiens), P36888 [UNDEFINED MUTATION]; conditions: Compound concentration 1000.0 nM
[19] = target: Insulin receptor-related protein (Homo sapiens) (UniProt P14616); conditions: Compound concentration 1000.0 nM
[20] = target: Tyrosine-protein kinase ITK/TSK (Homo sapiens) (UniProt Q08881); conditions: Compound concentration 1000.0 nM
[21] = target: Mast/stem cell growth factor receptor Kit (Homo sapiens) (UniProt P10721); conditions: Compound concentration 1000.0 nM
[22] = target: Serine/threonine-protein kinase LATS1 (Homo sapiens) (UniProt O95835); conditions: Compound concentration 1000.0 nM
[23] = target: Serine/threonine-protein kinase MARK1 (Homo sapiens) (UniProt Q9P0L2); conditions: Compound concentration 1000.0 nM
[24] = target: Maternal embryonic leucine zipper kinase (Homo sapiens) (UniProt Q14680); conditions: Compound concentration 1000.0 nM
[25] = target: Tyrosine-protein kinase Mer (Homo sapiens) (UniProt Q12866); conditions: Compound concentration 1000.0 nM
[26] = target: Hepatocyte growth factor receptor (Homo sapiens) (UniProt P08581); conditions: Compound concentration 1000.0 nM
[27] = target: Muscle, skeletal receptor tyrosine-protein kinase (Homo sapiens) (UniProt O15146); conditions: Compound concentration 1000.0 nM
[28] = target: Myosin-IIIb (Homo sapiens) (UniProt Q8WXR4); conditions: Compound concentration 1000.0 nM
[29] = target: Serine/threonine-protein kinase NIM1 (Homo sapiens) (UniProt Q8IY84); conditions: Compound concentration 1000.0 nM
[30] = target: Serine/threonine-protein kinase PAK 5 (Homo sapiens) (UniProt Q9P286); conditions: Compound concentration 1000.0 nM
[31] = target: Calcium-dependent protein kinase 1 (Plasmodium falciparum) (UniProt P62344); conditions: Compound concentration 1000.0 nM
[32] = test system: Phosphatidylinositol 4,5-bisphosphate 3-kinase catalytic subunit alpha isoform (Homo sapiens), P42336 [Q546K]; conditions: Compound concentration 1000.0 nM
[33] = target: Phosphatidylinositol 4,5-bisphosphate 3-kinase catalytic subunit delta isoform (Homo sapiens) (UniProt O00329); conditions: Compound concentration 1000.0 nM
[34] = target: Membrane-associated tyrosine- and threonine-specific cdc2-inhibitory kinase (Homo sapiens) (UniProt Q99640); conditions: Compound concentration 1000.0 nM
[35] = target: Serine/threonine-protein kinase PLK1 (Homo sapiens) (UniProt P53350); conditions: Compound concentration 1000.0 nM
[36] = target: Serine/threonine-protein kinase PLK3 (Homo sapiens) (UniProt Q9H4B4); conditions: Compound concentration 1000.0 nM
[37] = target: Serine/threonine-protein kinase D3 (Homo sapiens) (UniProt O94806); conditions: Compound concentration 1000.0 nM
[38] = target: cGMP-dependent protein kinase 2 (Homo sapiens) (UniProt Q13237); conditions: Compound concentration 1000.0 nM
[39] = target: Ribosomal protein S6 kinase alpha-5 (Homo sapiens) (UniProt O75582); conditions: Compound concentration 1000.0 nM
[40] = target: Ribosomal protein S6 kinase alpha-6 (Homo sapiens) (UniProt Q9UK32); conditions: Compound concentration 1000.0 nM
[41] = target: Serine/threonine-protein kinase 36 (Homo sapiens) (UniProt Q9NRP7); conditions: Compound concentration 1000.0 nM
[42] = target: Serine/threonine-protein kinase tousled-like 2 (Homo sapiens) (UniProt Q86UE8); conditions: Compound concentration 1000.0 nM
[43] = target: Delta-type opioid receptor (Homo sapiens) (UniProt P41143); conditions: Compound concentration 10.0 uM
[44] = target: Histamine H1 receptor (Homo sapiens) (UniProt P35367); conditions: Compound concentration 10.0 uM
[45] = target: Muscarinic acetylcholine receptor M5 (Homo sapiens) (UniProt P08912); conditions: Compound concentration 10.0 uM

Ankyrin repeat and protein kinase domain-containing protein 1 (Homo sapiens), sequence (Q8NFD2 whole entry, the tested form may be a part): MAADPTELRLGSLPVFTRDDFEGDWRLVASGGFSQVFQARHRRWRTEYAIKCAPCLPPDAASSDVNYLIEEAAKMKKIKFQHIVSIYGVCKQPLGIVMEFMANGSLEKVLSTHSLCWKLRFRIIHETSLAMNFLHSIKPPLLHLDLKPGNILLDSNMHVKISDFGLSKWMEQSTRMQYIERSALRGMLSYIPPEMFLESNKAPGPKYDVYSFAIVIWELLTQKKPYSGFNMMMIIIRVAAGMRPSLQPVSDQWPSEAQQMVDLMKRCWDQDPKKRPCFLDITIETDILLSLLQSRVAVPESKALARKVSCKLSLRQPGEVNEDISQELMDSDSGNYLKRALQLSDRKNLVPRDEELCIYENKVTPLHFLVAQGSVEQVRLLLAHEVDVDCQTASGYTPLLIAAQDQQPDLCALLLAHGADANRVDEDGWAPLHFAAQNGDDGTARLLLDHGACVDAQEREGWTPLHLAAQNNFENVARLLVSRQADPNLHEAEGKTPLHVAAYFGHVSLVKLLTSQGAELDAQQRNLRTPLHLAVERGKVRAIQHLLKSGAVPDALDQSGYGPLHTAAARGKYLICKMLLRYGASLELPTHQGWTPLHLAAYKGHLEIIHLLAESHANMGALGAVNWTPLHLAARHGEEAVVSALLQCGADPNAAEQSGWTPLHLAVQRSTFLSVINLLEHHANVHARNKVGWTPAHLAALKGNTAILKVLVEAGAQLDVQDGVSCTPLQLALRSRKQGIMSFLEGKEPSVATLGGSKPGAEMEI
Serine/threonine-protein kinase tousled-like 2 (Homo sapiens), sequence (Q86UE8 whole entry, looked up): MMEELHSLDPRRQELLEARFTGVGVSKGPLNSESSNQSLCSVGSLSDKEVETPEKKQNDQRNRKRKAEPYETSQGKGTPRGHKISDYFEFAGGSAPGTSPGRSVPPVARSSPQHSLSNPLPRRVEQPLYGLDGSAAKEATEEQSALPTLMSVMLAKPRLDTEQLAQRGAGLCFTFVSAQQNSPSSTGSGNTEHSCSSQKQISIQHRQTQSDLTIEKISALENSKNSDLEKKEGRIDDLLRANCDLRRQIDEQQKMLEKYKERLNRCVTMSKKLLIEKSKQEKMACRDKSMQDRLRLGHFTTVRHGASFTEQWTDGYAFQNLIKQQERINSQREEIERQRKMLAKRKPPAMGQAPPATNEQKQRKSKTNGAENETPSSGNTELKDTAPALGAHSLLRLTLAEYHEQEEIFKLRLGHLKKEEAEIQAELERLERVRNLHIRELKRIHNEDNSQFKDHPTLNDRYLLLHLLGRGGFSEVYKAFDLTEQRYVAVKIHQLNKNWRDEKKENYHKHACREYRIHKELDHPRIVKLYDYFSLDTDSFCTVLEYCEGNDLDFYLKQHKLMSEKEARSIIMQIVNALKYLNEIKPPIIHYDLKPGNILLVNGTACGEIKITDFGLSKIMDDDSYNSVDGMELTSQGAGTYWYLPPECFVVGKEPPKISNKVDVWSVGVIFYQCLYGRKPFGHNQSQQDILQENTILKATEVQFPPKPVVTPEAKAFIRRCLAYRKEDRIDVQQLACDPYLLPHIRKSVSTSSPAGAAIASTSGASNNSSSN
Serine/threonine-protein kinase PAK 5 (Homo sapiens), sequence (Q9P286 whole entry, looked up): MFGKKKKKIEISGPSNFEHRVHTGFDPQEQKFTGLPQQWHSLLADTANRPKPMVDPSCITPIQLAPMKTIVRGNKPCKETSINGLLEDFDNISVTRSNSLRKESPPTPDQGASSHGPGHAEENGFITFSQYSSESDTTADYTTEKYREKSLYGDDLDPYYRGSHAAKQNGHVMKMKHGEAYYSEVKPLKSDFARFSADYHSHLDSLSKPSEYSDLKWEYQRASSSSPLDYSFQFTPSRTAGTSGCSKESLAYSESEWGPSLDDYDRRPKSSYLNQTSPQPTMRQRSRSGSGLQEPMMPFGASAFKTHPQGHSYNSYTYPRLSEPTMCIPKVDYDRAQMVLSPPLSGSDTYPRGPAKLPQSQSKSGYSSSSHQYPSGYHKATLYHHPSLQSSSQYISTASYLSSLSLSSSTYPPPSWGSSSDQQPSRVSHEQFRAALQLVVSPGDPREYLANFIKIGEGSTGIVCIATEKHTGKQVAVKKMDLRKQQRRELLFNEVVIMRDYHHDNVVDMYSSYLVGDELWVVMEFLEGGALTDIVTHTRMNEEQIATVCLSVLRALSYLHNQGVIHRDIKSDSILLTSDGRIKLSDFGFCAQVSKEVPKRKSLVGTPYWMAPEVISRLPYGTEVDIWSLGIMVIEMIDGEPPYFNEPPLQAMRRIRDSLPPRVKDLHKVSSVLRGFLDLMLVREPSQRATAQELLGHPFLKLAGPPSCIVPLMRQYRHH
Receptor tyrosine-protein kinase erbB-4 (Homo sapiens), sequence (Q15303 whole entry): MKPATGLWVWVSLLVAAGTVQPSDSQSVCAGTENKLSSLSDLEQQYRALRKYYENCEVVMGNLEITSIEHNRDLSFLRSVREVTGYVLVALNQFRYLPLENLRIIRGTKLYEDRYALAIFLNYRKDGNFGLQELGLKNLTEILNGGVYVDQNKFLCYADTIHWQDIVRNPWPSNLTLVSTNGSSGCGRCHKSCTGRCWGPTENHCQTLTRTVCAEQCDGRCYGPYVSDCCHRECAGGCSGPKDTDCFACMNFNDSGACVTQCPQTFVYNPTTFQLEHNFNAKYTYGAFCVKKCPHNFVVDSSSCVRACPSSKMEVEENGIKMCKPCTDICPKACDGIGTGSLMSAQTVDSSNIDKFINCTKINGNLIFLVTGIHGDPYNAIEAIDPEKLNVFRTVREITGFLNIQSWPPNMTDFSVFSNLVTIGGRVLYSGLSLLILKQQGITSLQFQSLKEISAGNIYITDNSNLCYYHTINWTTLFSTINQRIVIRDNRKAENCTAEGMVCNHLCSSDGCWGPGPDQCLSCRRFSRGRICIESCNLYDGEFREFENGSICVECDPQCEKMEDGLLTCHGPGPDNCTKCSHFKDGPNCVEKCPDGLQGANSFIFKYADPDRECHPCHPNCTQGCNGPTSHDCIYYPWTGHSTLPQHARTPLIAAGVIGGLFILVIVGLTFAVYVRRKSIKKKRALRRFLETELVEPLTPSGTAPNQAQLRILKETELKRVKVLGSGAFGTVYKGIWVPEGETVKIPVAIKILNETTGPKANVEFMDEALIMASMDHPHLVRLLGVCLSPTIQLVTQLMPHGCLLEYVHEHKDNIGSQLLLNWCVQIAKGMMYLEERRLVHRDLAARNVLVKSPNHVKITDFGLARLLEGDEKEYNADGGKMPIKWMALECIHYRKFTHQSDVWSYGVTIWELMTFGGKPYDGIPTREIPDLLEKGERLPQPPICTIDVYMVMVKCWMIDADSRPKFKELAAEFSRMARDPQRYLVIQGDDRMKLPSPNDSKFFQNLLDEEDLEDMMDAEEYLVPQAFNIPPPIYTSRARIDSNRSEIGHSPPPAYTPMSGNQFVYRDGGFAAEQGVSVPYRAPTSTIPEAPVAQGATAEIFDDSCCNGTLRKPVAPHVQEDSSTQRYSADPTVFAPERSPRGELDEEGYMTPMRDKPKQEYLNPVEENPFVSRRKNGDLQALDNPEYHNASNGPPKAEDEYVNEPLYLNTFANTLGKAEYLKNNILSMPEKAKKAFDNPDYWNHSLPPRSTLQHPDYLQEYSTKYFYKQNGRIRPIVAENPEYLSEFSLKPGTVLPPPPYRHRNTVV
RAC-alpha serine/threonine-protein kinase (Homo sapiens), sequence (P31749 whole entry, the tested form may be a part): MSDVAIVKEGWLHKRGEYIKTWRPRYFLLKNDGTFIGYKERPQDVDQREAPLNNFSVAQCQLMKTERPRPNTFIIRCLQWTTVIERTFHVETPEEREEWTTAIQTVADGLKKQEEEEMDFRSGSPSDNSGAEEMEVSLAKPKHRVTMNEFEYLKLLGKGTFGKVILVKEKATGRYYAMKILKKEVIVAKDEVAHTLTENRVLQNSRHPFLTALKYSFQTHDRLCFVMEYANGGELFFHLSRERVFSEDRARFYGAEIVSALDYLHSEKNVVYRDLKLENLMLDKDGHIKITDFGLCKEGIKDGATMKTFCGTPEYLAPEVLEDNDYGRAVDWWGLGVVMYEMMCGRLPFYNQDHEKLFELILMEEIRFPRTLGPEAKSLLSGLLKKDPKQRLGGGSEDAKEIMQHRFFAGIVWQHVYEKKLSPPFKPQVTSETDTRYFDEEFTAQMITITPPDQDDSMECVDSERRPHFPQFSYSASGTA
Calcium/calmodulin-dependent protein kinase kinase 1 (Homo sapiens), sequence (Q8N5S9 whole entry, looked up): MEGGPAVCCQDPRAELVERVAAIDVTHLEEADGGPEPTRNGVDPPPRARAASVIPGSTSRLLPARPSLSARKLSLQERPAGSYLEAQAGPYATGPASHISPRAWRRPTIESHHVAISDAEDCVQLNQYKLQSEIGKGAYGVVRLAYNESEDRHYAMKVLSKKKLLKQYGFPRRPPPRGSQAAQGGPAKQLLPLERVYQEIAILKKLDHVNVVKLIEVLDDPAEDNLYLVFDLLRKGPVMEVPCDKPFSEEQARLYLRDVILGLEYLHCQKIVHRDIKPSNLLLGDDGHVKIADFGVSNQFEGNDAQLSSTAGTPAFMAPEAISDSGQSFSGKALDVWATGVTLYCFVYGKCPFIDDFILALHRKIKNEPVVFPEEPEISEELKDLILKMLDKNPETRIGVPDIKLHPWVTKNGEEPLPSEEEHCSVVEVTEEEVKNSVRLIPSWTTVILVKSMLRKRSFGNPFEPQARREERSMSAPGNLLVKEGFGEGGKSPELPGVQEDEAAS
Calcium-dependent protein kinase 1 (Plasmodium falciparum), sequence (P62344 2-524 limits assumed): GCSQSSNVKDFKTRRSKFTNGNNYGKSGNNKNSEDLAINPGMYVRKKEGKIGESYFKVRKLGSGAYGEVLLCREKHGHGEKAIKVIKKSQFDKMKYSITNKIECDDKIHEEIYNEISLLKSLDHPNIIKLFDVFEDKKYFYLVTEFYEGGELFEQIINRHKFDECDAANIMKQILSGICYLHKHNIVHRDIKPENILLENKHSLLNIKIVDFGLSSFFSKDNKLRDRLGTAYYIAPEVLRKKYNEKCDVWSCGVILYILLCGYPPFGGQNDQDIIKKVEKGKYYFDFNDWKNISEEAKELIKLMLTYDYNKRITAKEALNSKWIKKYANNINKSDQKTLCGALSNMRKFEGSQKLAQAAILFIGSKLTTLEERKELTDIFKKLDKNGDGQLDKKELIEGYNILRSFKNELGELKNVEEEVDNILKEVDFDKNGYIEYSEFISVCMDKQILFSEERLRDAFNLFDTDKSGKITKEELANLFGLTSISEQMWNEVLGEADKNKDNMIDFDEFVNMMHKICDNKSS

C[C@@H](c1cccc(C#N)c1)n1cc(Cl)cc(C(N)=O)c1=N [(S)-9s]
inactive: residual activity [1] 82% | residual activity [2] 100% | residual activity [3] 95% | residual activity [4] 93% | residual activity [5] 100% | residual activity [6] 79% | residual activity [7] 100% | residual activity [8] 100% | residual activity [9] 100% | residual activity [10] 98% | residual activity [11] 93% | residual activity [12] 100% | residual activity [13] 100% | residual activity [14] 94% | residual activity [15] 85% | residual activity [16] 100% | residual activity [17] 100% | residual activity [18] 85% | residual activity [19] 100% | residual activity [20] 82% | residual activity [21] 93% | residual activity [22] 69% | residual activity [23] 100% | residual activity [24] 78% | residual activity [25] 82% | residual activity [26] 93% | residual activity [27] 100% | residual activity [28] 100% | residual activity [29] 97% | residual activity [30] 97% | residual activity [31] 78% | residual activity [32] 100% | residual activity [33] 100% | residual activity [34] 100% | residual activity [35] 98% | residual activity [36] 89% | residual activity [37] 100% | residual activity [38] 100% | residual activity [39] 74% | residual activity [40] 82% | residual activity [41] 94% | residual activity [42] 100% | inhibition [43] -3.33% | inhibition [44] -9.05% | inhibition [45] -1.05%

C[C@H](c1cccc(C#N)c1)n1cc(Cl)cc(C(N)=O)c1=N [(R)-9s]
inactive: residual activity [1] 87% | residual activity [2] 100% | residual activity [3] 98% | residual activity [4] 75% | residual activity [5] 87% | residual activity [6] 82% | residual activity [7] 100% | residual activity [8] 100% | residual activity [9] 100% | residual activity [10] 84% | residual activity [11] 75% | residual activity [12] 100% | residual activity [13] 100% | residual activity [14] 100% | residual activity [15] 78% | residual activity [16] 100% | residual activity [17] 88% | residual activity [18] 82% | residual activity [19] 100% | residual activity [20] 90% | residual activity [21] 87% | residual activity [22] 74% | residual activity [23] 97% | residual activity [24] 74% | residual activity [25] 96% | residual activity [26] 100% | residual activity [27] 100% | residual activity [28] 92% | residual activity [29] 84% | residual activity [30] 100% | residual activity [31] 86% | residual activity [32] 100% | residual activity [33] 99% | residual activity [34] 100% | residual activity [35] 89% | residual activity [36] 83% | residual activity [37] 65% | residual activity [38] 97% | residual activity [39] 68% | residual activity [40] 91% | residual activity [41] 75% | residual activity [42] 100% | inhibition [43] -7.87% | inhibition [44] -6.96% | inhibition [45] 3.44%
